Results on 26 compounds are retold here after patent US12643881B2, “Bicyclic amine CDK12 inhibitors” (Incyte Corporation, priority 2021, dated 2026).

T1 sequence (Q9NYV4 whole entry): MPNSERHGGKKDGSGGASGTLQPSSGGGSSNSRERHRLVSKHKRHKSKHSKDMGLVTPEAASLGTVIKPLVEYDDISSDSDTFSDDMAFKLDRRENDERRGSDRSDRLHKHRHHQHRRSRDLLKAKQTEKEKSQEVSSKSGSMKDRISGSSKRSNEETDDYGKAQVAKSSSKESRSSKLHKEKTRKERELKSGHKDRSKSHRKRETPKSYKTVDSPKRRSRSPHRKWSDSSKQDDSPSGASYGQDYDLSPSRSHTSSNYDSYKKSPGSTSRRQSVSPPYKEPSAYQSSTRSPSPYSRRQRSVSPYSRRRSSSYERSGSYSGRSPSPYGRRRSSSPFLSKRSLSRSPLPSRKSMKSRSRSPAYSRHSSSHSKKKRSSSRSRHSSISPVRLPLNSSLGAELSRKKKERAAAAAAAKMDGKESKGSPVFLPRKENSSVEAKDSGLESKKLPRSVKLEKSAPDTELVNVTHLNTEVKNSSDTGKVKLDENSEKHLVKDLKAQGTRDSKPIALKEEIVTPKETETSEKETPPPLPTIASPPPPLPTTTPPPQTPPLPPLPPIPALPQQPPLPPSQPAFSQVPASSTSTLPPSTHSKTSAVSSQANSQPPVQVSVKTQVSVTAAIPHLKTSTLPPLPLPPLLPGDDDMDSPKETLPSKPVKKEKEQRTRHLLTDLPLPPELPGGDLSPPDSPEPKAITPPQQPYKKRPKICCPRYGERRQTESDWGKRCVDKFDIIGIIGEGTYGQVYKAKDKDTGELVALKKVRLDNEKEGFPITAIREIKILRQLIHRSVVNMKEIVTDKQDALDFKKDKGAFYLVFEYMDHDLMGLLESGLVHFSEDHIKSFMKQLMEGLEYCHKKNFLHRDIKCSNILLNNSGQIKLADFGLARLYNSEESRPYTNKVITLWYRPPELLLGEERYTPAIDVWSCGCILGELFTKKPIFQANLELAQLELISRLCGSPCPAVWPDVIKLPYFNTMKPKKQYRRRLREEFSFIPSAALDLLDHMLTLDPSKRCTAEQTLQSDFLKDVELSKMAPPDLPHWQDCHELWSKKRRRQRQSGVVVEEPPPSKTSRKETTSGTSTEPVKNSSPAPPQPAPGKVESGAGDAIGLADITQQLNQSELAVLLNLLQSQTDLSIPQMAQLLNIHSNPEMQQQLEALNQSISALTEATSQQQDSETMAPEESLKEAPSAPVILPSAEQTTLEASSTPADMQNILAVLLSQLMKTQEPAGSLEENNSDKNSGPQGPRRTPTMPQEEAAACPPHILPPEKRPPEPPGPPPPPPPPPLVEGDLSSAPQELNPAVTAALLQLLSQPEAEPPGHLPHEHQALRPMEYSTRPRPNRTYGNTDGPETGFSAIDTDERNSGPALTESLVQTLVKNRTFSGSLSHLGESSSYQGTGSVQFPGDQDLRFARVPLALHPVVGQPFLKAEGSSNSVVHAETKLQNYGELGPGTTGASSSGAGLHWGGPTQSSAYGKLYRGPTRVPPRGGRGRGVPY
T1 sequence (O75909 whole entry partner): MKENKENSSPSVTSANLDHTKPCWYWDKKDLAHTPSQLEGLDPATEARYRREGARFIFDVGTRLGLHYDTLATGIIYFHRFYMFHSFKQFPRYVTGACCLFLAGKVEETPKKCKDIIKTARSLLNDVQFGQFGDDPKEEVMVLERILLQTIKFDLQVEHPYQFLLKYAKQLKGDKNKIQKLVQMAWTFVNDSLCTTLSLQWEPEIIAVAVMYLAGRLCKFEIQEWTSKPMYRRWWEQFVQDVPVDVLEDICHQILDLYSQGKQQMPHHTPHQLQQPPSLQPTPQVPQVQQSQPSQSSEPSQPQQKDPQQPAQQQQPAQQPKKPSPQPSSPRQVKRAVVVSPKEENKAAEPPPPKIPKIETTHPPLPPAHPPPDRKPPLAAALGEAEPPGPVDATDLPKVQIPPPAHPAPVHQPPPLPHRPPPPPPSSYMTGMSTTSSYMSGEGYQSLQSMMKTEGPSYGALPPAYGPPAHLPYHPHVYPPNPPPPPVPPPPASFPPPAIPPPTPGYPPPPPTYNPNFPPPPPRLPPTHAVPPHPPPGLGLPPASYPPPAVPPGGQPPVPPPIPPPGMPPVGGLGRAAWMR

This assay concerns the target T1, CDK12 complexed with Cyclin K (Homo sapiens, UniProt Q9NYV4).
T1 construct: GST (N)
Description: CDK Enzymatic Assays (HTRF, LANCE Ultra kinase assay), Example A1. It counts as biochemical. The following applies: enzyme pre-incubated with compounds for 60 minutes prior to addition of ATP (1 mM final) and Ulight-peptide; reaction 60-90 minutes at room temperature. An excerpt:
Example A1. CDK Enzymatic Assays
The following activity of the CDK enzymes in complex with their respective cyclins we assayed: CDK1 complexed with Cyclin B1; CDK2 complexed with Cyclin E1; CDK4 complexed with Cyclin D1; CDK6 complexed with Cyclin D1; CDK6 complexed with Cyclin D3; CDK9 complexed with Cyclin T1; CDK7 complexed with Cyclin H/MAT1; CDK2 complexed with Cyclin A2; CDK5 complexed with p35; CDK12 complexed with Cyclin K; CDK13 complexed with Cyclin K. These in vitro enzyme activity are assayed using homogeneous time-resolved energy transfer (HTRF), which measures phosphorylation of a peptide substrate. The LANCER Ultra kinase assay (PerkinElmer) uses a ULight™-labeled EIF4E-binding protein 1 (THR37/46) peptide (DYSTTPGGTLFSTTPGTRI (SEQ ID NO: 1)) substrate and a Europium-labeled anti-phospho-4E-BP1 antibody (CDK2, CDK1, CDK4, CDK6, CDK9, CDK12, CDK13) or ULight™-labeled Myelin Basic Protein peptide (VTPRTPPP (SEQ ID NO: 2)) substrate and a Europium-labeled anti-phospho-MBP antibody (CDK7). Each CDK enzyme activity assays utilized human CDK co-expressed as N-terminal GST-tagged protein with its full length cyclin partner using a baculovirus expression system.
Enzyme was pre-incubated with compounds for 30 minutes (CDK1,2,4,6,9) or 60 minutes (CDK7, CDK12, CDK13) prior to addition of ATP and Ulight-peptide (1 mM and 50 nM final, respectively), in assay buffer containing 50 mM HEPES pH 7.5, 1 mM EGTA, 10 mM MgCl2, 2 mM DTT, 0.05 mg/mL BSA, and 0.01% Tween 20. The reaction was then incubated for 60-90 minutes at room temperature. The reactions were stopped by the addition of EDTA and Europium labeled antibody, for a final concentration of 15 mM and 1.0-1.5 nM, respectively. HTRF signals were read after 15-120 minutes. A ratio of fluorescence transferred to the labeled substrate (665 nm) relative to fluorescence of the Europium donor (620 nm) represents the extent of phosphorylation. Ratios for treated wells were normalized to DMSO only (100% activity) and no enzyme (0% activity) controls. Normalized data was analyzed using a three or four parameter dose response curve to determine IC50 for each compound and are shown in Table A. Control reference inhibitors were included on each plate.
(In general: Time-resolved FRET reads energy transfer from a long-lived donor to a nearby acceptor.)
One may read the IC50 as the midpoint of a concentration-inhibition curve. As for `C=CC(=O)Nc1ccc2c(ccn2[C@H]2CCC[C@@H](Nc3ncc(C#N)c(OC)n3)C2)c1` [Example 26, N-(1-((1S,3R)-3-((5-Cyano-4-methoxypyrimidin-2-yl)amino)cyclohexyl)-1H-indol-5-yl)acrylamide], the IC50 was more than 500 nM. Take `COc1nc(N[C@@H]2CCC[C@H](c3nc4cc(NC(=O)CCl)ccc4n3C)C2)ncc1C#N` [Example 50, 2-Chloro-N-(2-((1S,3R)-3-((5-cyano-4-methoxypyrimidin-2-yl)amino)cyclohexyl)-1-methyl-1H-benzo[d]imidazol-5-yl)acetamide]: the half-maximal inhibitory concentration (IC50) is less than 50 nM.

Regarding `C=CC(=O)Nc1c(Br)cc2c(nc(N3CCC[C@@H](Nc4ncc(C(F)(F)F)cn4)C3)n2C)c1C` [Example 103, (R)—N-(6-Bromo-1,4-dimethyl-2-(3-((5-(trifluoromethyl)pyrimidin-2-yl)amino)piperidin-1-yl)-1H-benzo[d]imidazol-5-yl)acrylamide], the 50% inhibitory concentration (IC50) was less than 50 nM. For `C=CC(=O)Nc1ccc2c(c1)nc(N1CC[C@@H](F)[C@@H](Nc3ncc(C(F)(F)F)cn3)C1)n2C` [Example 90, N-(2-((3S,4R)-4-Fluoro-3-((5-(trifluoromethyl)pyrimidin-2-yl)amino)piperidin-1-yl)-1-methyl-1H-benzo[d]imidazol-5-yl)acrylamide], the IC50 was less than 50 nM. The result for `COc1nc(N[C@@H]2CCC[C@H](N3Cc4ccc(NC(=O)C(C)Br)cc4C3=O)C2)ncc1C#N` (stereo partly drawn) [Example 55, 2-Bromo-N-(2-((1S,3R)-3-((5-cyano-4-methoxypyrimidin-2-yl)amino)cyclohexyl)-3-oxoisoindolin-5-yl)propanamide] reads less than 50 nM. `C=CC(=O)N(C)c1ccc2c(c1)C(=O)N([C@H]1CCC[C@@H](Nc3ncc(C#N)c(OC)n3)C1)C2` [Example 65, N-(2-((1S,3R)-3-((5-Cyano-4-methoxypyrimidin-2-yl)amino)cyclohexyl)-3-oxoisoindolin-5-yl)-N-methylacrylamide]: the IC50 is less than 50 nM. `C=CC(=O)Nc1cc2nc(N3C[C@H](F)C[C@@H](Nc4ncc(C(F)(F)F)cn4)C3)n(C)c2cc1C1CC1` [Example 95, N-(6-Cyclopropyl-2-((3R,5R)-3-fluoro-5-((5-(trifluoromethyl)pyrimidin-2-yl)amino)piperidin-1-yl)-1-methyl-1H-benzo[d]imidazol-5-yl)acrylamide]: the concentration for half-maximal inhibition (IC50) is less than 50 nM. As for `C/C=C/C(=O)Nc1ccc2c(c1)C(=O)N([C@H]1CCC[C@@H](Nc3ncc(C#N)c(OC)n3)C1)C2` [Example 64, (E)-N-(2-((1S,3R)-3-((5-Cyano-4-methoxypyrimidin-2-yl)amino)cyclohexyl)-3-oxoisoindolin-5-yl)but-2-enamide], the IC50 was more than 500 nM. The same measure for `COc1nc(N[C@@H]2CCC[C@H](c3nc4cc(NC(=O)C(C)Br)ccc4n3C)C2)ncc1C#N` (stereo partly drawn) [Example 52, 2-Bromo-N-(2-((1S,3R)-3-((5-cyano-4-methoxypyrimidin-2-yl)amino)cyclohexyl)-1-methyl-1H-benzo[d]imidazol-5-yl)propanamide]: less than 50 nM; for `C=CC(=O)Nc1ccc2c(c1)C(=O)N([C@H]1CCC[C@@H](Nc3ncc(C(F)(F)F)c(N4CC[C@@H](N(C)C)C4)n3)C1)C2` [Example 62, N-(2-((1S,3R)-3-((4-((R)-3-(Dimethylamino)pyrrolidin-1-yl)-5-(trifluoromethyl)pyrimidin-2-yl)amino)cyclohexyl)-3-oxoisoindolin-5-yl)acrylamide]: less than 50 nM. Consider `C=CC(=O)Nc1ccc2c(c1)C(=O)N([C@H]1CCC[C@@H](Nc3ncc(Cl)cn3)C1)C2` [Example 82, N-(2-((1S,3R)-3-((5-Chloropyrimidin-2-yl)amino)cyclohexyl)-3-oxoisoindolin-5-yl)acrylamide], for which the 50% inhibitory concentration (IC50) was less than 50 nM. In the case of `C=CC(=O)Nc1c(C)nc2c(N3CCC[C@@H](Nc4ncc(C#N)c(OC)n4)C3)nccn12` [Example 14, (R)—N-(8-(3-((5-Cyano-4-methoxypyrimidin-2-yl)amino)piperidin-1-yl)-2-methylimidazo[1,2-a]pyrazin-3-yl)acrylamide], the concentration for half-maximal inhibition (IC50) is less than 50 nM.

Take `C=CC(=O)Nc1ccc2c(c1)C(=O)N([C@H]1CCC[C@@H](Nc3ncc(Br)c(C(F)(F)F)n3)C1)C2` [Example 75, N-(2-((1S,3R)-3-((5-Bromo-4-(trifluoromethyl)pyrimidin-2-yl)amino)cyclohexyl)-3-oxoisoindolin-5-yl)acrylamide]: the 50% inhibitory concentration (IC50) was less than 50 nM. Turning to `C=CC(=O)Nc1ccc2c(c1)C(=O)N([C@H]1CCC[C@@H](Nc3ncc(C#N)c(NCC(C)(C)O)n3)C1)C2` [Example 66, N-(2-((1S,3R)-3-((5-Cyano-4-((2-hydroxy-2-methylpropyl)amino)pyrimidin-2-yl)amino)cyclohexyl)-3-oxoisoindolin-5-yl)acrylamide], the IC50 was less than 50 nM. Regarding `C=CC(=O)Nc1ccc2c(c1)C(=O)N([C@H]1CCC[C@@H](Nc3cc(C#N)c(C(F)(F)F)cn3)C1)C2` [Example 19, N-(2-((1S,3R)-3-((4-Cyano-5-(trifluoromethyl)pyridin-2-yl)amino)cyclohexyl)-3-oxoisoindolin-5-yl)acrylamide], the concentration for half-maximal inhibition (IC50) is less than 50 nM.

As to `C=CC(=O)Nc1cccc2c1ncn2[C@H]1CCC[C@@H](Nc2ncc(C#N)cn2)C1` [Example 69, N-(1-((1S,3R)-3-((5-Cyanopyrimidin-2-yl)amino)cyclohexyl)-1H-benzo[d]imidazol-4-yl)acrylamide], the 50% inhibitory concentration (IC50) is less than 50 nM. The result for `COc1nc(N[C@@H]2CCCN(c3cc4c(cn3)c(NC(=O)C(C)Br)nn4C)C2)ncc1C#N` (stereo partly drawn) [Example 32, 2-Bromo-N-(6-((R)-3-((5-cyano-4-methoxypyrimidin-2-yl)amino)piperidin-1-yl)-1-methyl-1H-pyrazolo[4,3-c]pyridin-3-yl)propanamide] reads less than 50 nM; that for `C=CC(=O)Nc1ccc2c(c1)C(=O)N([C@H]1CCC[C@@H](Nc3ncc(C#N)c(N(C)C)n3)C1)C2` [Example 77, N-(2-((1S,3R)-3-((5-Cyano-4-(dimethylamino)pyrimidin-2-yl)amino)cyclohexyl)-3-oxoisoindolin-5-yl)acrylamide], less than 50 nM. As for `C=CC(=O)Nc1ccc2c(c1)ncn2[C@H]1CCC[C@@H](Nc2ncc(C#N)c(OC)n2)C1` [Example 79, N-(1-((1S,3R)-3-((5-Cyano-4-methoxypyrimidin-2-yl)amino)cyclohexyl)-1H-benzo[d]imidazol-5-yl)acrylamide], the IC50 was less than 50 nM.

Consider `C=CC(=O)Nc1ccc2c(c1)C(=O)N([C@H]1CCC[C@@H](Nc3ncc(C(F)(F)F)cn3)C1)C2` [Example 85, N-(3-Oxo-2-((1S,3R)-3-((5-(trifluoromethyl)pyrimidin-2-yl)amino)cyclohexyl)isoindolin-5-yl)acrylamide], for which the half-maximal inhibitory concentration (IC50) is less than 50 nM.

`C=C(F)C(=O)Nc1ccc2c(c1)nc([C@H]1CCC[C@@H](Nc3ncc(C#N)c(OC)n3)C1)n2C` [Example 53, N-(2-((1S,3R)-3-((5-Cyano-4-methoxypyrimidin-2-yl)amino)cyclohexyl)-1-methyl-1H-benzo[d]imidazol-5-yl)-2-fluoroacrylamide]: the IC50 is 50 to 500 nM. As to `C=CC(=O)Nc1ccc2c(c1)C(=O)N([C@H]1CCC[C@@H](Nc3ccc(C#N)c(C)n3)C1)C2` [Example 15, N-(2-((1S,3R)-3-((5-Cyano-6-methylpyridin-2-yl)amino)cyclohexyl)-3-oxoisoindolin-5-yl)acrylamide], the IC50 is more than 500 nM.

Take `C=CC(=O)Nc1cc2nc(N3CCC(F)(F)[C@@H](Nc4ncc(C(F)(F)F)cn4)C3)n(C)c2cc1C` [Example 97, (S)—N-(2-(4,4-Difluoro-3-((5-(trifluoromethyl)pyrimidin-2-yl)amino)piperidin-1-yl)-1,6-dimethyl-1H-benzo[d]imidazol-5-yl)acrylamide]: the IC50 is less than 50 nM.

Regarding `C=CC(=O)Nc1ccc2c(c1)C(=O)N([C@H]1CCC[C@@H](Nc3ncc(-c4ccc(OC)cc4)cn3)C1)C2` [Example 4, N-(2-((1S,3R)-3-((5-(4-Methoxyphenyl)pyrimidin-2-yl)amino)cyclohexyl)-3-oxoisoindolin-5-yl)acrylamide], the IC50 is more than 500 nM. For the compound `C=CC(=O)Nc1ccc2c(cnn2[C@H]2CCC[C@@H](Nc3ncc(C#N)c(OC)n3)C2)c1` [Example 25, N-(1-((1S,3R)-3-((5-Cyano-4-methoxypyrimidin-2-yl)amino)cyclohexyl)-1H-indazol-5-yl)acrylamide], the IC50 lay within 50 to 500 nM. `COc1nc(N[C@@H]2CCC[C@H](N3Cc4ccc(NC(=O)CBr)cc4C3=O)C2)ncc1C#N` [Example 58, 2-Bromo-N-(2-((1S,3R)-3-((5-cyano-4-methoxypyrimidin-2-yl)amino)cyclohexyl)-3-oxoisoindolin-5-yl)acetamide]: the IC50 was less than 50 nM.
